Key:
MCD diet-induced NASH = assay: MCD diet-induced nonalcoholic steatohepatitis (NASH) mouse model; type: in vivo
From the text: Male wild-type (WT) mice C571BI/6 were fed either methionine/choline-sufficient (MCS) chow diet (Trophic Animal Feed High-tech Co., Ltd, China) or MCD diet (Trophic Animal Feed High-tech Co., Ltd, China) for 7 weeks. Animals were randomly divided into eight groups: 1) control, fed a standard control MCS diet and given vehicle (35% polyethylene glycol (PEG) 400:15% Cremophor EL:5% ethanol:45% saline); 2) rats fed a MCD diet and given vehicle; 3) rats fed the MCD diet and orally treated with silybin (300 milligrams per kilogram (mg/kg)); 4) rats fed the MCD diet and orally treated with silybin (150 mg/kg); 5) rats fed the MCD diet and orally treated with tangeretin (150 mg/kg); 6) rats fed the MCD diet and orally treated with 75 mg/kg silybin and 75 mg/kg tangeretin (SB & TG—L); 7) rats fed the MCD diet and orally treated 150 mg/kg silybin and 150 mg/kg tangeretin (SB & TG—M); 8) rats fed the MCD diet and orally treated with 300 mg/kg silybin and […]. Body weight was intermittently monitored during the diet-induction period and every two or three days during the intervention period.
At the end of 8 weeks, mice were sacrificed under ether anesthesia. The following procedures are same as the description under “2.10 Effects of silybin on acute liver damage induced by CCl4 in rats”. The cytokine levels including tumor necrosis factor alpha (TNF-α) (eBioscience Inc, San Diego, Calif., USA), interleukin-6 (IL-6) assay kit (Raybiotech, Norcross, Ga., USA) in serum of NASH model were further measured using commercially available enzyme-linked immunosorbent assay (ELISA) kits.

[1] = after oral administration; cited from earlier work

COc1cc(C2Oc3cc([C@H]4Oc5cc(O)cc(O)c5C(=O)[C@@H]4O)ccc3OC2CO)ccc1O (stereo partly shown) [silybin]
MCD diet-induced TC and TG increase (MCD diet-induced NASH; mice on MCD diet): clearly inhibited | body weight (MCD diet-induced NASH; mice on MCD diet): slightly increased | lipid accumulation and inflammatory infiltration in liver (H&E) (MCD diet-induced NASH; mice on MCD diet): decreased | liver/body weight ratio (MCD diet-induced NASH; mice on MCD diet): moderate decrease | MCD diet-induced elevation of ALT, AST, MDA, SOD, GSH and GSH/GSSG ratio (MCD diet-induced NASH; silybin 300 mg/kg, silybin-tangeretin treatment): suppressed | liver/body ratio (MCD diet-induced NASH; silybin by co-treatment with tangeretin, FIG. 35A): significantly decreased | body weight and liver weight (MCD diet-induced NASH; silybin by co-treatment with tangeretin, FIG. 35B, 35C): did not significantly affect | MCD diet-induced cytokines elevation (IL-1β, TNF-α, IL-6) (MCD diet-induced NASH; silybin treatment in the absence or presence of tangeretin): suppressed | share metabolized to glucuronide conjugates in human plasma [1]: about 55% | share metabolized to sulfate conjugates in human plasma [1]: about 28%

Reference: patent US10265298B2, “Method of increasing the bioavailability of silybin” (Macau University of Science and Technology, priority 2017, dated 2019)
